In paper PMC6081875 (EJNMMI Research, 2018):

Tests used:
[1] = tested on: bone marrow; assay: Bone marrow dosimetry, reference protocol (RP): sequential whole-body planar and quantitative SPECT images plus blood samples, organ-level S values; type: in vivo
Experimental: (§1) Data for dosimetry were acquired during a routine 4-day in-patient stay following the radiopharmaceutical injection, in conjunction with standard clinical examinations. All patients received a 15-min one-bed abdominal SPECT scan and a 20-min whole-body planar scintigraphy at 24, 48, and 72 h post-injection (p. i.) on a dual-headed Symbia T2 SPECT/CT (Siemens Medical Solutions, Erlangen, Germany). Counts were detected for the photopeak window of 208 keV (width 15%) by the usage of a medium-energy low-penetration collimator. Two additional scatter windows were measured at 170 keV (width 15%) and 240 keV (width 10%). A low-dose AC-CT was acquired at the first image acquisition session for anatomical correlation and attenuation correction during quantitative SPECT reconstruction. For the determination of the absorbed dose to the bone marrow from the activity circulating in the blood, five venous blood samples were drawn from the site contralateral to injection at 30 and 80 min p. i. and 24, 48, and 72 h p. i..
Quantitative SPECT images were reconstructed as described by Delker et al. via a rotation-based, penalised, one-step-late ordered subset expectation maximisation algorithm, which included corrections for scatter, attenuation, and distance-dependent geometrical collimator blur. Attenuation correction was performed for each SPECT scan via the AC-CT, which was acquired along with the SPECT scan 24 h post-injection. To apply the attenuation correction, especially to the SPECT scans 48 and 72 h p. i., the single AC-CT was co-registered onto an initial SPECT reconstruction without attenuation correction by using a rigid body co-registration algorithm with six degrees of freedom (PMOD Version 3.609, PMOD Technologies, Zurich, Switzerland). If only one AC-CT is acquired for sequential SPECT imaging, special care has to be taken to minimise misregistration between SPECT images and separately acquired CT scans, as such a misalignment can distort the proper attenuation correction and, thus, activity quantification. This is in principal also true for serial SPECT and CT imaging, as even within a single image acquisition session patient movements cannot be entirely avoided. Scatter correction employed the triple energy window (TEW) method. Correction for distance-dependent collimator blur made use of a Gaussian blur model. Corrections for partial volume effects and dead time were not applied. For conversion of the measured counts per second and per voxel to Becquerel per millilitre, an appropriate calibration factor was determined. Therefore, we used a large cylinder of approximately 20 cm diameter, which was filled with a known activity concentration and which has been imaged and reconstructed via the same protocol.
For each patient, all acquired whole-body planar images were corrected for scatter and attenuation on a pixel basis via a dedicated MATLAB routine (Fig. 1); for the correction of scatter, the TEW method was applied, as for the quantitative SPECT images. For the attenuation correction, a linear projection of μ values along the ventral axis of the patient was created from the diagnostic CT image of the pre-therapeutic Ga-68 PET/CT scan, which covered nearly the whole patient body from the middle of the head to approximately the knees. Therefore, a conversion between the Hounsfield units (HUs) in the diagnostic CT and the μ values at 208 keV was established by acquiring a CT scan of a Gammex tissue phantom (Gammex 467; Gammex, Inc., Middleton, WI) with 16 tissue rods of known composition and thus known attenuation characteristics. The μ values of all rods were plotted against the measured HUs, and a bilinear fit model (range 1: HU = (− 688;0); range 2: HU = (0;1127)) was applied to the whole data set. This calibration curve allows for the assignment of μ values to a continuous range of HUs. […]

[2] = Whole-body effective half-life from sequential whole-body planar images (mono-exponential fit); type: in vivo, human; conditions: mono-exponential fit, 24, 48, 72 h p. i.
Experimental: as §1
For each patient, all acquired whole-body planar images were corrected for scatter and attenuation on a pixel basis via a dedicated MATLAB routine (Fig. 1); for the correction of scatter, the TEW method was applied, as for the quantitative SPECT images. For the attenuation correction, a linear projection of μ values along the ventral axis of the patient was created from the diagnostic CT image of the pre-therapeutic Ga-68 PET/CT scan, which covered nearly the whole patient body from the middle of the head to approximately the knees. Therefore, a conversion between the Hounsfield units (HUs) in the diagnostic CT and the μ values at 208 keV was established by acquiring a CT scan of a Gammex tissue phantom (Gammex 467; Gammex, Inc., Middleton, WI) with 16 tissue rods of known composition and thus known attenuation characteristics. The μ values of all rods were plotted against the measured HUs, and a bilinear fit model (range 1: HU = (− 688;0); range 2: HU = (0;1127)) was applied to the whole data set. This calibration curve allows for the assignment of μ values to a continuous range of HUs. The lower arms and legs as well as a part of the head were not included in the PET/CT data, as the arms are usually positioned above the head during the PET/CT scan and as the PET/CT scan is usually not acquired over the entire patient length. By contrast, the arms, legs, and head are fully included in the whole-body planar images, and an appropriate μ value has to be defined for each segment (Fig. 1). Thus, mean μ values derived from three patients with PET/CT acquisitions of the head, legs, and arms were assigned to the missing segments. Therefore, all segments—the part visible on the PET/CT and the missing parts of the head, arms, and legs—were delineated on the co-registered whole-body planar images (delineation and rigid body co-registration via PMOD Version 3.609). The resulting map of the regions of interest (ROI) was saved, with each ROI segment being characterised via a defined value. This ROI map was then loaded by a self-designed MATLAB routine, which assigned the defined μ value to each segment according to the ROI number. Afterwards, the resulting whole-body integral μ-map was blurred via a Gaussian filter with a width approximating an average resolution of the gamma camera (geometric resolution of full width at half maximum of 11 mm at 10 cm). Pixel-wise attenuation correction was finally performed in conjunction with geometric averaging of both planar views (conjugate view method).
Calibration of whole-body planar images was performed via the corresponding quantitative abdominal SPECT by using the fact that ideally the total activity ASPECT within the quantitative SPECT should be correlated to the number of counts per second (cps) xplanar in the planar abdominal counterpart multiplied by an appropriate calibration factor: […]

[3] = median of n = 5 patients per therapy, approx. 7.4 GBq Lu-177-Octreotate (NET) or 3.7 GBq Lu-177-PSMA-617 (mCRPC)
[4] = median of n = 5 patients per therapy

SMILES: O=C(O)CC[C@H](NC(=O)N[C@@H](CCCCNC(=O)[C@H](Cc1ccc2ccccc2c1)NC(=O)[C@H]1CC[C@H](CNC(=O)CN2CCN(CC(=O)O)CCN(CC(=O)O)CCN(CC(=O)O)CC2)CC1)C(=O)O)C(=O)O [Lu-177-PSMA-617, Lu-177-DKFZ-PSMA-617, metal not drawn]
- DBM ← total, total bone marrow absorbed dose, RP [1, 3]: 10.2 mGy/GBq
- DBM ← total, total bone marrow absorbed dose, RP ([1]; patient P6 (mCRPC, 3718 MBq)): 10.2 mGy/GBq
- DBM ← total, total bone marrow absorbed dose, RP ([1]; patient P7 (mCRPC, 3743 MBq)): 6.7 mGy/GBq
- DBM ← total, total bone marrow absorbed dose, RP ([1]; patient P8 (mCRPC, 3745 MBq)): 16.8 mGy/GBq
- DBM ← total, total bone marrow absorbed dose, RP ([1]; patient P9 (mCRPC, 3752 MBq)): 14.2 mGy/GBq
- DBM ← total, total bone marrow absorbed dose, RP ([1]; patient P10 (mCRPC, 3700 MBq)): 8.3 mGy/GBq
- T1/2, WB, planar-based whole-body effective half-life [2, 4]: 31 h
- T1/2, WB, planar-based whole-body effective half-life ([2]; patient P6 (mCRPC)): 22 h
- T1/2, WB, planar-based whole-body effective half-life ([2]; patient P7 (mCRPC)): 31 h
- T1/2, WB, planar-based whole-body effective half-life ([2]; patient P8 (mCRPC)): 65 h
- T1/2, WB, planar-based whole-body effective half-life ([2]; patient P9 (mCRPC)): 39 h
- T1/2, WB, planar-based whole-body effective half-life ([2]; patient P10 (mCRPC)): 29 h

SMILES: C[C@@H](O)[C@H](NC(=O)[C@@H]1CSSC[C@H](NC(=O)[C@@H](Cc2ccccc2)NC(=O)CN2CCN(CC(=O)O)CCN(CC(=O)O)CCN(CC(=O)O)CC2)C(=O)N[C@@H](Cc2ccc(O)cc2)C(=O)N[C@H](Cc2c[nH]c3ccccc23)C(=O)N[C@@H](CCCCN)C(=O)N[C@@H]([C@@H](C)O)C(=O)N1)C(=O)O [Lu-177-Octreotate, Lu-177-[DOTA^0,Tyr^3]-Octreotate, metal not drawn]
- DBM ← total, total bone marrow absorbed dose, RP [1, 3]: 12.1 mGy/GBq
- DBM ← total, total bone marrow absorbed dose, RP ([1]; patient P1 (NET, 7654 MBq)): 12.1 mGy/GBq
- DBM ← total, total bone marrow absorbed dose, RP ([1]; patient P2 (NET, 7425 MBq)): 9.6 mGy/GBq
- DBM ← total, total bone marrow absorbed dose, RP ([1]; patient P3 (NET, 7420 MBq)): 15.6 mGy/GBq
- DBM ← total, total bone marrow absorbed dose, RP ([1]; patient P4 (NET, 7409 MBq)): 11.8 mGy/GBq
- DBM ← total, total bone marrow absorbed dose, RP ([1]; patient P5 (NET, 7410 MBq)): 12.7 mGy/GBq
- T1/2, WB, planar-based whole-body effective half-life [2, 4]: 43 h
- T1/2, WB, planar-based whole-body effective half-life ([2]; patient P1 (NET)): 40 h
- T1/2, WB, planar-based whole-body effective half-life ([2]; patient P2 (NET)): 43 h
- T1/2, WB, planar-based whole-body effective half-life ([2]; patient P3 (NET)): 43 h
- T1/2, WB, planar-based whole-body effective half-life ([2]; patient P4 (NET)): 52 h
- T1/2, WB, planar-based whole-body effective half-life ([2]; patient P5 (NET)): 62 h
